The values below are quoted from earlier work in patent publication US20090197893A1 (Bristol-Myers Squibb Company, priority 2005, published 2009).

A word on the IC50: it is the point on the concentration scale where inhibition reaches its midpoint.

The test system of one data set is wild-type BCR-ABL. The settings on record: cited from earlier work.
Data set [1] deals with imatinib-resistant BCR-ABL mutants. To be noted: cited from earlier work.
The subject of another data set is CML patients. The settings on record: cited from earlier work; for patients who developed resistance to imatinib: 4 years of follow-up.

Read-outs that look alike come from different tables or passages of the source.

Consider `Cc1cn(-c2cc(NC(=O)c3ccc(C)c(Nc4nccc(-c5cccnc5)n4)c3)cc(C(F)(F)F)c2)cn1` [AMN107], for which the IC50 in the data set on wild-type BCR-ABL was […]. Further, the “imatinib-resistant BCR-ABL mutants against which significantly active” value in data set [1] is listed as 32/33.
Regarding `Cc1ccc(NC(=O)c2ccc(CN3CCN(C)CC3)cc2)cc1Nc1nccc(-c2cccnc2)n1` [imatinib], the results for the “patients who developed resistance to imatinib” value in the data set on CML patients (AP CML patients) and in the data set on CML patients (BC patients) were 75% and 95%, respectively. The “estimated 2-year incidence of resistance” value in the data set on CML patients (blastic phase) is given as 80%; in the data set on CML patients (chronic phase post-interferon-α failure), 10%.
